Peptide text beside a SMILES is read from it. * marks the point of attachment. αGalNAc = CC(=O)N[C@@H]1[C@@H](O)[C@@H](O)[C@@H](CO)O[C@@H]1*

For the first series, the system named is normal adult rats. The series can be described thus: Systemic (subcutaneous) administration to normal adult rats, pQCT bone densitometry of tibia. The conditions noted are these: 0.4 ng/g B.W. every 2 days for two weeks, vs saline. The class given is in vivo, rat. The procedure: After humane sacrifice, long bones were collected from rats subjected to agent treatment as described in Examples 1 and 2. The bones were evaluated using densitometry techniques with the Norland Medical Systems pQCT scanner. The densitometric parameters that were determined included: • 1. Total Content, which is the mineral content of the bone within a 1 mm slice. • 2. Total Density, which is the mean density of the total bone. • 3. Trabecular Content, which is the mineral content of the trabecular bone within a 1 mm slice. • 4. Trabecular Density, which is the mean density of the trabecular bone • 5. Cortical Content, which is the mineral content of the cortical bone within a 1 mm slice. • 6. Cortical Density, which is the mean density of the […]. • 7. Periosteal circumference in the “circular ring model” in mm. • 8. Endosteal circumference in the “circular ring model” in mm. • 9. Total area (mm^2), which is the cross sectional area of the bone after the soft tissue has been peeled off. • 10. Cortical area (mm^2), which is the area assigned to be pure cortical. • 11. Trabecular area (mm^2), which is the cross sectional area of the trabecular area after the cortical and subcortical area has been peeled off. Effects of Agents on Bone Density:
Non-glycosylated fADBP, at a dosage of 0.4 ng/g of body weight, was administered by subcutaneous injection into normal adult rats every two days for two weeks. The effect of this treatment on bone density and DpD levels was assayed as described above.
Glycosylated fADBP, at a dosage of 5.0 ng/g of body weight was administered by subcutaneous injection into normal adult rats every two days for two weeks. The effect of this treatment on bone density was assayed as described above.
Non-glycosylated DBP peptides of different lengths, at a dosage of 0.4 ng/g of body weight, were administered by subcutaneous injection into normal adult rats every two days for two weeks. The DBP peptides were derived from fADBP and comprised the first 3, 4, 5, 6, 7, 8, 9, 10, 11, 12, and 13 amino acids of SEQ ID NO. 1. After humane sacrifice, the tibia was collected from control and DBP peptide treated rats and analyzed using densitometry techniques with the Norland Medical Systems pQCT scanner. Statistical analysis was performed
“DBP peptide 11: first 11 amino acids of SEQ ID NO. 1 (Thr Pro Thr Glu Leu Ala Lys Leu Val Asn Lys) (TPTELAKLVNK; listed as Homo sapiens)”: the “Total Bone Density” value is given as “significantly increased”.
On the same count and under the same terms, in the case of “DBP peptide 8: first 8 amino acids of SEQ ID NO. 1 (Thr Pro Thr Glu Leu Ala Lys Leu) (TPTELAKL; listed as Homo sapiens)” it was “significantly increased”; in that of “DBP peptide 7: first 7 amino acids of SEQ ID NO. 1 (Thr Pro Thr Glu Leu Ala Lys) (TPTELAK; listed as Homo sapiens)”, “significantly increased”.
The same measure, in the same setting: then “DBP peptide 5: first 5 amino acids of SEQ ID NO. 1 (Thr Pro Thr Glu Leu) (TPTEL; listed as Homo sapiens)”, with “significantly increased”.
The same measure, in the same setting: then “DBP peptide 6: first 6 amino acids of SEQ ID NO. 1 (Thr Pro Thr Glu Leu Ala) (TPTELA; listed as Homo sapiens)”, with “significantly increased”; and “DBP peptide 12: first 12 amino acids of SEQ ID NO. 1 (Thr Pro Thr Glu Leu Ala Lys Leu Val Asn Lys Arg) (TPTELAKLVNKR; listed as Homo sapiens)”, with “significantly increased”.
For the compound “DBP peptide 4: first 4 amino acids of SEQ ID NO. 1 (Thr Pro Thr Glu) (TPTE; listed as Homo sapiens)”, the “Total Bone Density” value was “significantly increased”.
Consider “DBP peptide 3: first 3 amino acids of SEQ ID NO. 1 (Thr Pro Thr) (TPT; listed as Homo sapiens)”, for which the “Total Bone Density” value is reported as “significantly increased”.
With “DBP peptide 10: first 10 amino acids of SEQ ID NO. 1 (Thr Pro Thr Glu Leu Ala Lys Leu Val Asn) (TPTELAKLVN; listed as Homo sapiens)”, the “Total Bone Density” value was “significantly increased”.

A further series has as its system Ovariectomized Sprague-Dawley rats. The series can be described thus: High-dose administration to ovariectomized Sprague-Dawley rats. The class given is in vivo. The following applies: 100 ng/g to 30 μg/g body weight every day for 60 days. On the procedure: Ovariectomized Sprague-Dawley rats were allowed to lose bone from 60 days. Thereafter, animals were injected with glycosylated fADBP or non-glycosylated fADBP, at concentrations ranging from 100 ng/g of body weight to 30 μg/g of body weight every day for 60 days.
As to `CC(=O)N[C@H]1[C@@H](O[C@H](C)[C@H](NC(=O)[C@@H]2CCCN2C(=O)[C@@H](N)[C@@H](C)O)C(=O)N[C@@H](CCC(=O)O)C(=O)N[C@@H](CC(C)C)C(=O)N[C@@H](C)C(=O)N[C@@H](CCCCN)C(=O)N[C@@H](CC(C)C)C(=O)N[C@H](C(=O)N[C@@H](CC(N)=O)C(=O)N[C@@H](CCCCN)C(=O)N[C@@H](CCCNC(=N)N)C(=O)N[C@@H](CO)C(=O)N[C@@H](CCC(=O)O)C(=O)O)C(C)C)O[C@H](CO)[C@H](O)[C@@H]1O` [Glycosylated fADBP] (H-TPT(αGalNAc)ELAKLVNKRSE-OH), the toxic effect entry was “no detectable toxic effect”.

The record behind these values is US7226904B2, “Agents and methods for promoting bone growth” (priority 2000, dated 2007).
